Data: BindingDB's records for PubMed 26804741 (Helmholtz Institute For Pharmaceutical Research Saarland …, 2016)

experiment: Inhibition of Pseudomonas aeruginosa LecB

Row | SMILES | IC50
1 | CC[C@H](C)[C@H](NC(=O)[C@H](Cc1cnc[nH]1)NCCCC[C@H](NC(=O)[C@@H](NC(=O)[C@H](CCCCN)NC(=O)[C@H](Cc1ccccc1)NC(=O)[C@H](CCCCNC(=O)[C@H](CC(C)C)NC(=O)[C@@H]1CCCN1C(=O)[C@@H](N)CCCCNC(=O)C[C@@H]1O[C@@H](C)[C@@H](O)[C@@H](O)[C@@H]1O)NC(=O)[C@H](CC(C)C)NC(=O)[C@@H]1CCCN1C(=O)[C@@H](N)CCCCNC(=O)C[C@@H]1O[C@@H](C)[C@@H](O)[C@@H](O)[C@@H]1O)[C@@H](C)CC)C(=O)N[C@H](C(=O)N[C@@H](CCCCN)C(=O)N[C@@H](Cc1ccccc1)C(=O)N[C@@H](CCCCN[C@@H](CC(C)C)C(=O)N1CCC[C@H]1C(=O)N[C@@H](CCCCNC(=O)C[C@@H]1O[C@@H](C)[C@@H](C)[C@@H](C)[C@@H]1O)C(=O)O)C(=O)N[C@@H](CC(C)C)C(=O)N1CCC[C@H]1C(=O)N[C@@H](CCCCNC(=O)C[C@@H]1O[C@@H](C)[C@@H](O)[C@@H](O)[C@@H]1O)C(=O)O)[C@@H](C)CC)C(N)=O | 0.14 µM
2 | CO[C@H]1O[C@H]([C@@H](O)CNS(=O)(=O)c2c(C)cc(C)cc2C)[C@@H](O)[C@H](O)[C@@H]1O | 100 µM
3 | CCCCCCCCO[C@@H]1O[C@H](CO)[C@H](O[C@@H]2O[C@H](CO)[C@H](O)[C@H](O)[C@H]2NC(C)=O)[C@H](O)[C@H]1OCCC | 8 µM
